Assay results as given in publication PMC7046201, “Unexpected differences in the pharmacokinetics of N-acetyl-DL-leucine enantiomers after oral dosing and their clinical relevance” (PLoS ONE, 2020).
Values joined by “and” are separate entries in the source; they are usually repeats but may differ in a detail not shown here. Equal values may be shown once.

Legend:
[1] = set-up: method as in Neuzil et al. 2002; settings: humans, oral absorption; ref Neuzil et al. 2002; cited from earlier work
[2] = Plasma pharmacokinetics of N-acetyl-leucine enantiomers after oral dosing of mice
Experimental: The animals were weighed on the day prior to dosing. The compound was administered to male BALB/c mice (n = 3 per time point) p.o. (100 mg/kg; 10 mL/kg) by oral gavage. Blood samples were collected into potassium EDTA tubes by venepuncture from the saphenous vein. Within 30 min following the sampling, blood was centrifuged for plasma separation (room temperature; 10 min; 2700 xg). The plasma samples were transferred into plastic tubes, frozen and stored at –20°C.
The plasma samples were prepared for analysis by mixing 50 μL of plasma with 100 μL of acetonitrile and mixed. In addition to plasma, skeletal muscle and brain tissue was also taken at less frequent time points (0.5, 2, 6, 24 and 48 h) and prepared for analysis by homogenization of 50 mg of tissue with 100 μL of acetonitrile. The samples were transferred to Waters 96-well plate and the sample was evaporated under nitrogen gas flow. The sample was reconstituted into 150 μl of 50% methanol:water and analysed by LC/MS. Standard plasma samples were prepared by spiking the injection solution with concentrations from 1 to 10 000 ng/mL by using one volume of spiking solution and nine volumes of injection solution. These samples were then prepared for analysis in the same way as the samples. […] QC samples from racemic-N-Acetyl-Leucine were prepared into concentrations of 40, 400 and 4000 ng/mL, corresponding to […] concentration of both D- and L-enantiomers, respectively. […] QC samples were then prepared for analysis in the same way as the samples.
Quantification by HPLC was performed using a Supelco Astec CHIROBIOTIC T chiral HPLC column (2.1 x 150 mm, 5 μm particle size) with a Waters Acquity UPLC + Thermo Q-Exactive hybrid Orbitrap MS, using ESI negative polarity, nitrogen auxiliary gas (450°C), capillary voltage was […] and controlled with the software Xcalibur 4.1. Samples were injected as a 4-μL volume and eluted with a gradient of buffer A (20 mM ammonium acetate) and buffer B (methanol) with a flow rate of 0.3 mL/min and column oven temperature of 30°C. The gradient was 80% A at 0 min; 20% A at 3.5 min and 80% A at 4.5 min Parallel Reaction Monitoring (PRM) and Full-MS-dd-MS2 were measured at the same time. […] Ions with aforementioned m/z was then collided and leucine fragment (m/z 130 or 134) was used in quantitation. In full-MS-dd-MS2 mode, every ion with intensity over a certain intensity was collided and fragments analyzed.
Plasma pharmacokinetic parameters of the N-acetyl-leucine enantiomers were calculated using Phoenix 64 (Build 6.4.0.768) WinNonlin (version 6.4) software, using non-compartmental method with sparse sampling. Nominal doses were used for all animals. The terminal phase half-life (T1/2), the time for 50% of the plasma concentration to decrease after some point of elimination, was calculated by least-squares regression analysis of the terminal linear part of the log concentration–time curve using the relationship 0.693/ke. The area under the plasma concentration–time curve (AUC), an estimation of plasma drug exposure over time, was determined with the linear trapezoidal rule for increasing values and log trapezoidal rule for decreasing values up to the last measurable concentration (AUC0-last). The first order elimination rate constant ke was calculated as the slope (minimum 3 points) from the terminal log plasma concentration time curve. The maximum concentration (Cmax) and the time taken to achieve the peak concentration (Tmax) after oral dose were obtained directly from the plasma concentration data without interpolation. The theoretical background and interpretation of the pharmacokinetic data was based on. Where appropriate, data are expressed as the mean ± standard error of the mean. Means were statistically analysed by either pre-planned t tests or a one-sample t test comparing the measured value with the expected value.

[3] = Brain concentration of enantiomers after oral dosing of mice; type: in vivo, male BALB/c mice
Experimental: (§1) In addition to plasma, skeletal muscle and brain tissue was also taken at less frequent time points (0.5, 2, 6, 24 and 48 h) and prepared for analysis by homogenization of 50 mg of tissue with 100 μL of acetonitrile. The samples were transferred to Waters 96-well plate and the sample was evaporated under nitrogen gas flow. The sample was reconstituted into 150 μl of 50% methanol:water and analysed by LC/MS. […] These samples were then prepared for analysis in the same way as the samples. […] QC samples from racemic-N-Acetyl-Leucine were prepared into concentrations of 40, 400 and 4000 ng/mL, corresponding to 20, 200 and 200 ng/mL concentration of both D- and L-enantiomers, respectively. […] QC samples were then prepared for analysis in the same way as the samples.
(§2) Quantification by HPLC was performed using a Supelco Astec CHIROBIOTIC T chiral HPLC column (2.1 x 150 mm, 5 μm particle size) with a Waters Acquity UPLC + Thermo Q-Exactive hybrid Orbitrap MS, using ESI negative polarity, nitrogen auxiliary gas (450°C), capillary voltage was 2000 and 350°C and controlled with the software Xcalibur 4.1. Samples were injected as a 4-μL volume and eluted with a gradient of buffer A (20 mM ammonium acetate) and buffer B (methanol) with a flow rate of 0.3 mL/min and column oven temperature of 30°C. The gradient was 80% A at 0 min; 20% A at 3.5 min and 80% A at 4.5 min Parallel Reaction Monitoring (PRM) and Full-MS-dd-MS2 were measured at the same time. […] Ions with aforementioned m/z was then collided and leucine fragment (m/z 130 or 134) was used in quantitation. In full-MS-dd-MS2 mode, every ion with intensity over a certain intensity was collided and fragments analyzed.

[4] = Skeletal muscle concentration of enantiomers after oral dosing of mice; type: in vivo, male BALB/c mice; settings: individual mice
Experimental: as §1, §2

[5] = 0.15 h after p.o. N-Acetyl-L-Leucine 100 mg/kg, individual mice
[6] = 0.30 h after p.o. N-Acetyl-L-Leucine 100 mg/kg, individual mice
[7] = 1.00 h after p.o. N-Acetyl-L-Leucine 100 mg/kg, individual mice
[8] = 2.00 h after p.o. N-Acetyl-L-Leucine 100 mg/kg, individual mice
[9] = 4.00 h after p.o. N-Acetyl-L-Leucine 100 mg/kg, individual mice
[10] = 6.00 h after p.o. N-Acetyl-L-Leucine 100 mg/kg, individual mice
[11] = 8.00 h after p.o. N-Acetyl-L-Leucine 100 mg/kg, individual mice
[12] = 24.0 h after p.o. N-Acetyl-L-Leucine 100 mg/kg, individual mice
[13] = 32.0 h after p.o. N-Acetyl-L-Leucine 100 mg/kg, individual mice
[14] = 48.0 h after p.o. N-Acetyl-L-Leucine 100 mg/kg, individual mice
[15] = male, BALB/c, mouse, in vivo, po, 100 mg/kg
[16] = male, BALB/c, mouse, plasma, oral, 100 mg/kg, concentration in plasma, 0.30 h after p.o. N-Acetyl-L-Leucine 100 mg/kg, individual mice
[17] = male, BALB/c, mouse, plasma, oral, 100 mg/kg, concentration in plasma, 6.00 h after p.o. N-Acetyl-L-Leucine 100 mg/kg, individual mice
[18] = male, BALB/c, mouse, plasma, po, 100 mg/kg
[19] = plasma, after oral N-Acetyl-L-Leucine, nominal dose 100 mg/kg
[20] = plasma, after oral N-Acetyl-L-Leucine, nominal dose 100 mg/kg, 100 mg/kg
[21] = plasma, after oral N-Acetyl-L-Leucine, nominal dose 100 mg/kg, listed as D-enantiomer, 100 mg/kg
[22] = 0.30 h after p.o. N-Acetyl-DL-Leucine 100 mg/kg
[23] = 2.00 h after p.o. N-Acetyl-DL-Leucine 100 mg/kg
[24] = male, BALB/c, mouse, skeletal muscle, oral, 100 mg/kg, 0.30 h after p.o. N-Acetyl-DL-Leucine 100 mg/kg
[25] = plasma, after oral N-Acetyl-L-Leucine, nominal dose 100 mg/kg, listed as L-enantiomer, 100 mg/kg

In the case of `CC(=O)NC(CC(C)C)C(=O)O` (racemic) [N-Acetyl-DL-Leucine, N-acetyl-DL-leucine], the elimination half-life [1] is listed as 60 to 108 min.

For `CC(=O)N[C@H](CC(C)C)C(=O)O` [N-Acetyl-D-Leucine, N-acetyl-D-leucine], the concentration in plasma [2, 5] was 391 ng/mL and 336 ng/mL, the concentration in plasma [2, 6] was 463 ng/mL and 388 ng/mL and the concentration in plasma [2, 7] was 116 ng/mL and 144 ng/mL and 248 ng/mL. For the same compound, the concentration in plasma [2, 8] was “<LoQ and 45.6 ng/ml”, the concentration in plasma [2, 9] was “<LoQ” and the concentration in plasma [2, 10] was “<LoQ and 21.4 ng/ml”. The concentration in plasma [2, 11] was 15.0 ng/ml and <LoQ, the concentration in plasma [2, 12] was “<LoQ” and the concentration in plasma [2, 13] was “<LoQ”. The concentration in plasma [2, 14] was “<LoQ”, the “actual dose proportionality for AUC” value ([2]; male, BALB/c, mouse, in vivo) was 101 fold and the “actual dose proportionality for Cmax” value ([2]; male, BALB/c, mouse, in vivo) was 197 fold. For the same compound, the Clast [2, 15] was 0.247 µg/mL, the Cmax [2, 15] was 86.1 µg/mL and the Tmax [2, 15] was under 15 min. The half-life [2, 15] was 18.6 min, the k el [2, 15] was 0.000611 s⁻¹ and the ke [2, 15] was 2.2. It also gave a concentration at 0.15 h ([2]; male, BALB/c, mouse, plasma, oral, 100 mg/kg, concentration in plasma, 0.15 h after p.o. N-Acetyl-L-Leucine 100 mg/kg, individual mice) of 0.582 µg/mL, a concentration at 0.3 h [2, 16] of 0.392 µg/mL and a concentration at 2 h ([2]; male, BALB/c, mouse, plasma, oral, 100 mg/kg, concentration in plasma, 2.00 h after p.o. N-Acetyl-L-Leucine 100 mg/kg, individual mice) of 0.0334 µg/mL. For the same compound, the concentration at 6 h [2, 17] was 0.0233 µg/mL, the concentration at 8 h ([2]; male, BALB/c, mouse, plasma, oral, 100 mg/kg, concentration in plasma, 8.00 h after p.o. N-Acetyl-L-Leucine 100 mg/kg, individual mice) was 0.0173 µg/mL and the Cmax [2, 18] was 0.436 µg/mL. It also gave a Tmax [2, 18] of under 15 min, a half-life [2, 18] of 15 min and a k el [2, 18] of 0.000472 s⁻¹. It also gave an AUC0-last [2, 19] of 573 h x ng/mL, a ke [2, 19] of 1.7 and a Clast [2, 20] of 0.0162 µg/mL. For the same compound, the Tlast [2, 20] was 8.00 h, the Clast [2, 21] was 0.016 µg/mL and the Tlast [2, 21] was 8 h. The concentration in brain ([3]; 0.30 h after p.o. N-Acetyl-DL-Leucine 100 mg/kg, individual mice) was 0.357 µg/mL and 0.491 µg/mL and 0.888 µg/mL, the concentration in brain ([3]; 2.00 h after p.o. N-Acetyl-DL-Leucine 100 mg/kg, individual mice) was “<LoQ” and the concentration at 2 h ([3]; male, BALB/c, mouse, brain, oral, 100 mg/kg, 2.00 h after p.o. N-Acetyl-DL-Leucine 100 mg/kg, individual mice) was 0.117 µg/mL. For the same compound, the concentration in muscle [4, 22] was 4.37 µg/mL and 3.59 µg/mL, the concentration in muscle ([4]; 0.30 h after p.o. N-Acetyl-L-Leucine 100 mg/kg) was 1.11 µg/mL and 1.52 µg/mL and the concentration in muscle [4, 23] was 0.335 µg/mL and 0.396 µg/mL and 0.829 µg/mL. The concentration in muscle ([4]; 2.00 h after p.o. N-Acetyl-L-Leucine 100 mg/kg) was 0.119 µg/mL and 0.109 µg/mL, the concentration at 0.3 h [4, 24] was 2.86 µg/mL and the concentration at 0.3 h ([4]; male, BALB/c, mouse, skeletal muscle, oral, 100 mg/kg, 0.30 h after p.o. N-Acetyl-L-Leucine 100 mg/kg) was 1.09 µg/mL. The concentration at 2 h ([4]; male, BALB/c, mouse, skeletal muscle, oral, 100 mg/kg, 2.00 h after p.o. N-Acetyl-L-Leucine 100 mg/kg) was 0.112 µg/mL.

For `CC(=O)N[C@@H](CC(C)C)C(=O)O` [N-Acetyl-L-Leucine, N-acetyl-L-leucine], the concentration in plasma [2, 5] was 9090 ng/mL and 12400 ng/mL and 28900 ng/mL, the concentration in plasma [2, 6] was 7520 ng/mL and 10500 ng/mL and the concentration in plasma [2, 7] was 1590 ng/mL and 4280 ng/mL and 5300 ng/mL. The concentration in plasma [2, 8] was 73 ng/mL and 663 ng/mL and 502 ng/mL, the concentration in plasma [2, 9] was 131 ng/mL and 139 ng/mL and 304 ng/mL and the concentration in plasma [2, 10] was “<LoQ and 114 ng/ml”. For the same compound, the concentration in plasma [2, 11] was “<LoQ”, the concentration in plasma [2, 12] was “<LoQ” and the concentration in plasma [2, 13] was “<LoQ”. For the same compound, the concentration in plasma [2, 14] was “<LoQ”, the “actual dose proportionality for AUC” value ([2]; male, BALB/c, mouse, in vivo) was 4.6 fold and the “actual dose proportionality for Cmax” value ([2]; male, BALB/c, mouse, in vivo) was 4.9 fold. For the same compound, the Clast [2, 15] was 0.623 µg/mL, the Cmax [2, 15] was 3.41 µg/mL and the Tmax [2, 15] was under 15 min. For the same compound, the half-life [2, 15] was 24 min, the k el [2, 15] was 0.000778 s⁻¹ and the ke [2, 15] was 2.8. For the same compound, the concentration at 0.3 h [2, 16] was 7.51 µg/mL, the concentration at 6 h [2, 17] was 0.222 µg/mL and the Cmax [2, 18] was 16.8 µg/mL. The Tmax [2, 18] was under 15 min, the half-life [2, 18] was 17.4 min and the k el [2, 18] was 0.000667 s⁻¹. The Clast [2, 19] was 0.168 µg/mL, the ke [2, 19] was 2.4 and the AUC0-last [2, 20] was 11 400 h x ng/mL. It also gave a Tlast [2, 20] of 6.00 h, an AUC0-last [2, 25] of 11400 h x ng/mL and a Tlast [2, 25] of 6 h. The detection in brain ([3]; following oral dosing with the racemate, Fig 6B) was “not detectable at any time point”, the concentration in muscle [4, 22] was 0.605 µg/mL and 0.566 µg/mL and the concentration in muscle [4, 23] was 0.364 µg/mL and 0.154 µg/mL and 0.193 µg/mL. The concentration in muscle ([4]; 6.00 h after p.o. N-Acetyl-DL-Leucine 100 mg/kg) was 0.159 µg/mL and 0.189 µg/mL, the concentration in muscle ([4]; 24.0 h after p.o. N-Acetyl-DL-Leucine 100 mg/kg) was 0.195 µg/mL and 0.153 µg/mL and the concentration in muscle ([4]; 48.0 h after p.o. N-Acetyl-DL-Leucine 100 mg/kg) was 0.102 µg/mL. The concentration at 0.3 h [4, 24] was 0.469 µg/mL, the concentration at 6 h ([4]; male, BALB/c, mouse, skeletal muscle, oral, 100 mg/kg, 6.00 h after p.o. N-Acetyl-DL-Leucine 100 mg/kg) was 0.108 µg/mL and the concentration at 24 h ([4]; male, BALB/c, mouse, skeletal muscle, oral, 100 mg/kg, 24.0 h after p.o. N-Acetyl-DL-Leucine 100 mg/kg) was 0.136 µg/mL. It also gave a concentration at 48 h ([4]; male, BALB/c, mouse, skeletal muscle, oral, 100 mg/kg, 48.0 h after p.o. N-Acetyl-DL-Leucine 100 mg/kg) of 0.124 µg/mL.
